Measurements published in patent US20080118573A1, “Use of Heavy Metals in the Treatment of Biofilms” (priority 2004, published 2008).
In brackets after ≈: the same amount, converted by molar mass. Where two headings read alike, the source gives them in different places.

Key:
Format in all cases: cell-based
[1] = system: Escherichia coli JM109 planktonic and biofilm bacteria; details: LB+B1, 24 h exposure; for MBEC: E. coli JM109 biofilm; for MBC: E. coli JM109 planktonic; for MIC: E. coli JM109
[2] = system: Staphylococcus aureus ATCC 29213 planktonic and biofilm bacteria; details: LB+B1, 24 h exposure; for MIC: S. aureus ATCC 29213; for MBEC: S. aureus ATCC 29213 biofilm; for MBC: S. aureus ATCC 29213 planktonic
[3] = system: Pseudomonas aeruginosa ATCC 27853 planktonic and biofilm bacteria; details: LB+B1, 24 h exposure; for MIC: P. aeruginosa ATCC 27853; for MBEC: P. aeruginosa ATCC 27853 biofilm; for MBC: P. aeruginosa ATCC 27853 planktonic
[4] = system: Pseudomonas aeruginosa ATCC 27853 planktonic and biofilm bacteria; test: MBEC-HTP antibiotic susceptibility, P. aeruginosa; details: for MBEC: P. aeruginosa ATCC 27853 biofilm
Procedure: (§1) Luria-Bertani medium was chosen for two reasons: 1) its established use in studies of metal resistance, and 2) because of the use of rich media in NCCLS testing protocols for antimicrobial resistance. Antibiotic resistance assays were performed using cation-adjusted Mueller-Hinton broth (CA-MHB, BDH Inc.) and subcultures, MBC and MBEC bacterial counts were performed using trypticase soy agar (TSA, Difco).
(§2) The present study used a novel high throughput method for screening biofilm susceptibility to metal cations and oxyanions: the MBEC device (MBEC Bioproducts Inc., Edmonton, Alberta, Canada, http://www.mbec.ca). The MBEC high throughput (MBEC-HTP) assay system consists of a shallow trough into which a plastic lid with 96 pegs fits. This peg lid also fits over a standard 96-well microtitre plate which can subsequently be used to setup serial dilutions of antimicrobial compounds. The bottom half of the MBEC device is a trough that has shallow channels that direct flow of an inoculated suspension over the pegs on the lid.
(§3) The inoculum was standardized to a 1.0 McFarland standard and verified by viable counts. The 1.0 McFarland standard inoculum was diluted 30-fold with growth media, which served as the growth suspension to inoculate the MBECJ device.
(§4) P. aeruginosa was incubated for 9 h, S. aureus for 24 h and E. coli for 24 h to generate approximately equivalent biofilms of 6.0×10^6 cfu/peg. Following the incubation period, growth of biofilm and planktonic cultures in the MBECJ device were discerned and verified by viable cell counts.
(§5) Chloramphenicol (Sigma) was prepared in 50% ethanol and treated identically to the other antibiotics. 10% ethanol was added to the growth controls for chloramphenicol assays. […] Starting with the working solutions, serial two-fold dilutions were made in the wells of a 96-well plate (the challenge plate), leaving the first well of each row as a sterility control and the second as a growth control (i.e. no antibiotic).

[5] = system: Pseudomonas aeruginosa biofilms; test: Metal and antibiotic combination assay; details: for MBC / MIC / MBEC: median of 4 replicates
Procedure: Cells were grown to a mean density of 6.0×10^6 cfu/peg in LB+B1 media.
• 1. […] All data are median values based on 4 replicates.

[6] = system: Staphylococcus aureus ATCC 29213 planktonic and biofilm bacteria; test: MBEC-HTP antibiotic susceptibility, S. aureus; details: CA-MHB, 24 h exposure; for MIC: S. aureus ATCC 29213; for MBEC: S. aureus ATCC 29213 biofilm; for MBC: S. aureus ATCC 29213 planktonic
Procedure: as §1, §2, §3, §4, §5

[7] = system: Escherichia coli JM109 planktonic and biofilm bacteria; test: MBEC-HTP antibiotic susceptibility, E. coli; details: for MBEC: E. coli JM109 biofilm
Procedure: as §1, §2, §3, §4, §5

[8] = Pseudomonas aeruginosa, ATCC27853, P. aeruginosa ATCC 27853, CA-MHB, 24 h exposure, read-out: MIC
[9] = Pseudomonas aeruginosa, ATCC27853, P. aeruginosa ATCC 27853 planktonic, CA-MHB, 24 h exposure, read-out: MBC
[10] = antibiotic or heavy metal alone, LB+B1
[11] = antibiotic in combination with 500 μg/ml Zn^2+
[12] = Pseudomonas aeruginosa, ATCC27853, 24 h

Molecule | MBEC [1] | MBC [1] | MIC [2] | MBEC [2] | MBC [2] | MIC [3] | MBEC [3] | MBC [3] | MIC [1] | other results
[Cl][Sn][Cl] [Sn^2+, stannous chloride] | 17 ± 0 mM | 17 ± 0 mM | 8.6 ± 0 mM | 17.3 ± 0 mM | 17.3 ± 0 mM | 17 ± 0 mM | 17 ± 0 mM | 22 ± 9 mM |  | 
[Na+].[Na+].[O]=[W](=[O])([O-])[O-] [WO4^2−, sodium tungstate] | >66 mM | >66 mM | >66 mM | >66 mM | >66 mM | >66 mM | >66 mM | >66 mM | >66 mM | 
[Na+].[Na+].[O]=[Mo](=[O])([O-])[O-] [MoO4^2−, sodium molybdate] | >102 mM | >102 mM | >102 mM | >102 mM | >102 mM | >102 mM | >102 mM | >102 mM | >102 mM | 
[Cl][Hg][Cl] [Hg^2+, mercuric chloride] | 0.07 ± 0.05 mM | 0.07 ± 0.05 mM | 0.020 mM | 0.080 ± 0 mM | 0.080 ± 0 mM | 0.38 ± 0.14 mM | 0.43 ± 0.16 mM | 0.53 ± 0.39 mM | 0.07 ± 0.05 mM | 
NCC[C@H](O)C(=O)N[C@@H]1C[C@H](N)[C@@H](O[C@H]2O[C@H](CN)[C@@H](O)[C@H](O)[C@H]2O)[C@H](O)[C@H]1O[C@H]1O[C@H](CO)[C@@H](O)[C@H](N)[C@H]1O [Amikacin] |  |  |  |  |  |  |  |  |  | MBEC ([4]; CA-MHB, 24 h exposure): >512 µg/mL; MIC [4, 8]: 32 µg/mL (≈ 54.6 µM); MBC [4, 9]: 224 ± 64 µg/mL (≈ 383 µM); MIC in the presence of Cu^2+, times less than the MIC for the antibiotic alone ([5]; 200 μg/ml Cu^2+): 256 times; MBC ([5]; Pseudomonas aeruginosa, antibiotic in combination with 200 μg/ml Cu^2+, read-out: MBC): > 64 µg/mL; MIC ([5]; Pseudomonas aeruginosa, antibiotic in combination with 200 μg/ml Cu^2+, read-out: MIC): 0.125 µg/mL; MBC ([5]; Pseudomonas aeruginosa, antibiotic or heavy metal alone, LB+B1, read-out: MBC): 256 µg/mL; MIC ([5]; Pseudomonas aeruginosa, antibiotic or heavy metal alone, LB+B1, read-out: MIC): 32 µg/mL; MBEC ([5]; antibiotic in combination with 200 μg/ml Cu^2+): >64 µg/mL; MBEC [5, 10]: >512 µg/mL
Sodium arsenite [AsO2^−] | 77 ± 0 mM | 77 ± 0 mM | 9.6 ± 0 mM | >77 mM | >77 mM | >77 mM | >77 mM | >77 mM | 2.4 ± 0 mM | 
[Cl][Cd][Cl] [Cd^2+, Cadmium chloride] | 2.3 ± 0 mM | 2.3 ± 0 mM | 0.25 ± 0.07 mM | 15.9 ± 4.6 mM | 18.2 ± 0 mM | 4.6 ± 0 mM | 36 ± 0 mM | 36 ± 0 mM | 1.1 ± 0 mM | 
O=[Te]([O-])[O-].[K+].[K+] [TeO3^2−, potassium tellurite] | 0.014 mM | 0.016 mM | 0.18 ± 0 mM | 0.73 ± 0 mM | >0.73 mM | 0.73 ± 0 mM | 4.4 ± 1.7 mM | 5.1 ± 0 mM | 0.006 mM | 
O=[Te](=O)([O-])[O-].[K+].[K+] [TeO4^2−, potassium tellurate] | 0.42 ± 0.17 mM | 0.42 ± 0.17 mM | 0.67 ± 0 mM | 1.3 ± 0.7 mM | >1.3 mM | >1.3 mM | >1.3 mM | >1.3 mM | 0.06 ± 0.02 mM | 
O=[Se](O)O [SeO3^2−, selenous acid] | 8.1 ± 0 mM | 8.1 ± 0 mM (≈ 1040 µg/mL) | 16 ± 0 mM (≈ 2060 µg/mL) | 16 ± 0 mM | 16 ± 0 mM (≈ 2060 µg/mL) | 28 ± 8 mM (≈ 3610 µg/mL) | 28 ± 8 mM | 28 ± 8 mM (≈ 3610 µg/mL) | 8.1 ± 0 mM (≈ 1040 µg/mL) | 
Gentamicin |  |  |  |  |  |  |  |  |  | MIC [6]: <2 µg/mL; MBEC [6]: 3.5 ± 1 µg/mL; MBC [6]: 4 ± 0 µg/mL; MIC ([4]; P. aeruginosa ATCC 27853, CA-MHB, 24 h exposure): 10 ± 4 µg/mL; MBEC ([4]; CA-MHB, 24 h exposure): >1024 µg/mL; MBC ([4]; P. aeruginosa ATCC 27853 planktonic, CA-MHB, 24 h exposure): 28 ± 8 µg/mL; MBC [5, 11]: 128 µg/mL; MIC [5, 11]: 64 µg/mL; MBC [5, 10]: 32 µg/mL; MBEC [5, 10]: >1024 µg/mL; MIC [5, 10]: 8 µg/mL
O=S(=O)([O-])[O-].[Mn+2] [Mn^2+, manganous sulfate] | 199 ± 86 mM | 199 ± 86 mM | 12 ± 5 mM | >149 mM | >149 mM | >149 mM | >149 mM | >149 mM | 37 ± 0 mM | 
O=C(N[C@H](CO)[C@H](O)c1ccc([N+](=O)[O-])cc1)C(Cl)Cl [Chloramphenicol] |  |  |  |  |  |  |  |  |  | MBEC ([7]; CA-MHB, 24 h exposure): >256 µg/mL; MIC ([7]; Escherichia coli, E. coli JM109, CA-MHB, 24 h exposure, read-out: MIC): 3.5 ± 1 µg/mL (≈ 10.8 µM); MBC ([7]; Escherichia coli, E. coli JM109 planktonic, CA-MHB, 24 h exposure, read-out: MBC): 128 µg/mL (≈ 396 µM); MBEC [6]: >1024 µg/mL; MIC ([6]; Staphylococcus aureus, ATCC29213, read-out: MIC): 80 ± 32 µg/mL (≈ 248 µM); MBC ([6]; Staphylococcus aureus, ATCC29213, read-out: MBC): 1020 µg/mL (≈ 3170 µM); MBEC ([4]; CA-MHB, 24 h exposure): >512 µg/mL; MIC [4, 8]: > 512 µg/mL; MBC [4, 9]: > 512 µg/mL
CCN1CCN(C(=O)N[C@@H](C(=O)N[C@@H]2C(=O)N3[C@@H]2SC(C)(C)[C@@H]3C(=O)O)c2ccccc2)C(=O)C1=O [Pipperacillin, Piperacillin] |  |  |  |  |  |  |  |  |  | MIC ([7]; E. coli JM109, CA-MHB, 24 h exposure): 4 ± 0 µg/mL (≈ 7.73 µM); MBEC ([7]; CA-MHB, 24 h exposure): 32 ± 0 µg/mL; MBC ([7]; E. coli JM109 planktonic, CA-MHB, 24 h exposure): 16 ± 0 µg/mL (≈ 30.9 µM)
Sodium hydrogen arsenate [AsO4^2−] | >60 mM | >60 mM | 15 ± 0 mM | >59 mM | >59 mM | >59 mM | >59 mM | >59 mM | 7.4 ± 0 mM | 
CC1(C)S[C@@H]2[C@H](NC(=O)[C@H](N)c3ccccc3)C(=O)N2[C@H]1C(=O)O [Ampicillin] |  |  |  |  |  |  |  |  |  | MBEC ([7]; CA-MHB, 24 h exposure): 1024 ± 0 µg/mL; MBC ([7]; Escherichia coli, 24 h): 64 µg/mL (≈ 183 µM); MIC ([7]; Escherichia coli, 24 h): 4 µg/mL (≈ 11.4 µM); MBEC ([4]; CA-MHB, 24 h exposure): >512 µg/mL; MBC [4, 12]: > 512 µg/mL; MIC [4, 12]: > 512 µg/mL
O=[N+]([O-])[O-].[Ag+] [Ag^+, silver nitrate] | 0.07 ± 0.02 mM | 0.09 ± 0.04 mM | 0.30 ± 0 mM | >9.5 mM | 9.5 ± 0 mM | 0.30 ± 0 mM | 0.40 ± 0.17 mM | 0.30 ± 0 mM | 0.06 ± 0.02 mM | 
